Results: patent publication US20080247991A1, “Solution Additives For the Attenuation of Protein Aggregation” (priority 2004, published 2008)
Marks after values point to notes of the source that are not given here.

Experiments:
[1] = target: T1, RNase T1 (Aspergillus oryzae, UniProt P00651); conditions: interpolated to mbulk 1.10 m; cited from earlier work
T1 sequence (P00651 27-130): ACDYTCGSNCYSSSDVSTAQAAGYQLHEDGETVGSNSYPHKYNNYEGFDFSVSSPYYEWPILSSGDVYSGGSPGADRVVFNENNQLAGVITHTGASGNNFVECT

[2] = target: T2, carbonic anhydrase II (Bos taurus, UniProt P00921); test: Carbonic anhydrase refolding yield by esterase activity (pNPA)
T2 sequence (P00921 whole entry): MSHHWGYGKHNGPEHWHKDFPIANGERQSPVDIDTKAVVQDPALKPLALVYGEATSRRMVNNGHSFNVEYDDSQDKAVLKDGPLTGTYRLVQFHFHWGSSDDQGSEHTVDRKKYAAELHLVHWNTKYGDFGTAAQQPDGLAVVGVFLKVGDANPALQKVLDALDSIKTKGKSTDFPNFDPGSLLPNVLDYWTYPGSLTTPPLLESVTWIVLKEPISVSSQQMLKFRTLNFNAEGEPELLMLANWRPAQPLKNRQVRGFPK
Procedure: Esterase activity assays were performed as a function of initial unfolded protein concentration and buffer composition to determine how equimolar concentrations of NaCl, ArgHCl, and GuHCl each affected refolding yield (FIG. 16).
High concentrations of carbonic anhydrase (>300 μM) were denatured in 6M GuHCl and equilibrated overnight. Refolding was initiated by dilution to 0.5M GuHCl with 50 mM Tris-HCl buffer, pH 7.5. This final GuHCl concentration was selected because it yields a mixture of active, refolded protein and aggregates. The distribution of this mixture was analyzed via esterase activity, size exclusion HPLC, and dynamic light scattering as described above.
Carbonic Anhydrase Esterase Activity—Esterase activity of carbonic anhydrase was assessed using para-nitrophenylacetate (pNPA) as the substrate as described previously. […] Briefly, 10 μl samples of carbonic anhydrase solution were added to 500 μl of Tris-HCl, pH 7.5 and 50 μl of 50 mM pNPA in acetonitrile. Kinetics of hydrolysis of pNPA was observed by the increase in absorbance at 400 nm due to the appearance of the paranitrophenolate ion (pNP^−). In all cases, the observed hydrolysis rate in absorbance units per second (AU/s) under these conditions was constant (pseudo-zero order). Hydrolysis rates were corrected for the hydrolysis of pNPA by the buffer for each type of buffer used. […] The active protein concentration data was reproducible to within 5-8% in replicated experiments.

[3] = target: T2, carbonic anhydrase II; test: Size exclusion HPLC of multimers formed during refolding of carbonic anhydrase; parameters: purchased Sigma-Aldrich C2522; species or system bovine; conditions: [U]0 = 5 μM, 0.5 M additive; for Large multimers, percentage of total carbonic anhydrase: inferred by difference
Procedure: Size exclusion HPLC experiments were performed to analyze the distribution of multimers formed during refolding. CA was refolded with three different additives, 0.5M NaCl, 0.5M GuHCl, and 0.5M ArgHCl, relative to a base refolding buffers of 0.5M GuHCl, as done in the esterase activity assays above. […] Other than this protein concentration difference, these experiments allow direct comparison of how an additional 0.5M of the three different cations affect refolding.
The samples were not filtered prior to introduction into the HPLC column.
Size Exclusion HPLC—Size exclusion HPLC (SE-HPLC) experiments were performed on a Beckman System Gold HPLC instrument equipped with a Tosohaas G3000SWXL size exclusion column and a UV detector. 30 μl samples were introduced to the column by a constant flow of 1 ml/min mobile phase. Each sample ran for 15 minutes, with carbonic anhydrase eluting between 6 and 10 minutes, depending on its molecular weight and buffer. […] A mixture of lysozyme, carbonic anhydrase, and bovine serum albumin (monomer and dimer) was used as a standard to calibrate molecular weight to retention time. Using this calibration curve and the breakthrough time of the column, the largest multimer that could pass through the column was a 15-mer. When significant mass was missing from a chromatogram, large multimers were quantitated by difference. The presence of large multimers was confirmed via turbidity or dynamic light scattering for each buffer. The instrument was cleaned with 30 μl injections of 4M GuHCl, a denaturing concentration found to dissociate and elute precipitates and large soluble carbonic anhydrase multimers.

[4] = target: T3, insulin binding to immobilized monoclonal anti-insulin (Homo sapiens, UniProt P01308); test: Surface plasmon resonance (Biacore 3000): globular protein association/dissociation kinetics in buffer with additive; conditions: 0.5 M additive in HBS-EP, pH 7.4; estimated error 15%
T3 construct: purchased Sigma-Aldrich (insulin); Fitzgerald Industries (antibody) I8530; 10-130 clone M322214
T3 sequence (P01308 25-54 limits assumed): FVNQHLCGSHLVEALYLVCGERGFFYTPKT
T3 sequence (P01308 90-110 limits assumed): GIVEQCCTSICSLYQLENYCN
Procedure: Surface plasmon resonance experiments were conducted to measure the effect of added ArgHCl and GuHCl on the kinetics of globular protein association and dissociation versus an equimolar salt control (NaCl). The data set shown in the figure is a composition of 8 different concentration runs plus replicates, for a total of 16 runs. At t=140 sec, the flow cell with immobilized anti-insulin was exposed to a constant concentration of insulin in the range of 2 to 188 nM for 3 minutes. During this 3 minutes, the antibody and antigen were free to associate and dissociate. The net reaction is the binding of free antigen in solution, resulting in an increase in detector response proportional to the mass of antigen bound. At t=320 sec, the insulin concentration in the flow cell inlet is returned to zero, and the bound antigen then dissociates from the surface. All 16 runs were simultaneously fit to a binding model by minimizing the squared residuals to yield the association and dissociation rate constants, ka and kd. This process was repeated to yield association, dissociation, and equilibrium constant data for the model systems in various buffers as shown in Table 4.
Globular Protein Association Kinetics—Protein association and dissociation rate constants, ka and kd, were measured for globular proteins via surface plasmon resonance on a Biacore 3000 instrument. Monoclonal anti-insulin was immobilized on a Biacore CM5 sensor chip via amine coupling. The amount of immobilized antibody was selected to give a detector response in the range of 50-100 RU when antigen was present. A reference surface was created by activating and deactivating the surface without coupling an antibody to it.
Different concentrations of insulin in the nanomolar range ([…]) were prepared by dilution and injected serially into the antibody-containing and reference flow cells. […] Pocker, Y. & Biswas, Subhasis, B. (1981) Biochemistry 20, 4354-4361. The dissociation rate was sufficiently fast in buffer that a regeneration buffer was not required. Kinetic constants were extracted by simultaneous fitting of ka and kd to each set of sensorgrams using a 1:1 kinetic model in the BIAevaluation 3.0 software package.

**Q.** For `NC(N)=O` [Urea], which “Experimental ΓXP” value [1] is on record?
**A.** 6.4^a

**Q.** Which results are given for `[Cl-].[Na+]` [NaCl, sodium chloride]?
**A.** α/α0 ([2]; 0.5 M additive, relative to 0.5M NaCl, base buffer 0.5 M GuHCl): 1; α (refolding selectivity parameter, kr/kagg) ([2]; 0.5 M additive, base buffer 0.5 M GuHCl, fit to second-order aggregation model): 9.3 µM; order of yield of active protein as a function of buffer additive ([2]; equimolar (0.5M) additives): NaCl<<ArgHCl<GuHCl; A2, percentage of total carbonic anhydrase ([3]; time 2 min): 0%; A3-5, percentage of total carbonic anhydrase ([3]; time 2 min): 0%; A6-15, percentage of total carbonic anhydrase ([3]; time 2 min): 0%; M (monomer), percentage of total carbonic anhydrase ([3]; time 2 min): 56%; Large multimers, percentage of total carbonic anhydrase ([3]; time 2 min): 44%; A2, percentage of total carbonic anhydrase ([3]; time 20 min): 0%; A3-5, percentage of total carbonic anhydrase ([3]; time 20 min): 0%; A6-15, percentage of total carbonic anhydrase ([3]; time 20 min): 0%; M (monomer), percentage of total carbonic anhydrase ([3]; time 20 min): 56%; Large multimers, percentage of total carbonic anhydrase ([3]; time 20 min): 44%; A2, percentage of total carbonic anhydrase ([3]; time 38 min): 0%; A3-5, percentage of total carbonic anhydrase ([3]; time 38 min): 0%; A6-15, percentage of total carbonic anhydrase ([3]; time 38 min): 0%; M (monomer), percentage of total carbonic anhydrase ([3]; time 38 min): 56%; Large multimers, percentage of total carbonic anhydrase ([3]; time 38 min): 44%; ka [4]: 44000 M⁻¹ s⁻¹; kd [4]: 0.014 s⁻¹
